The values below come from ChEMBL document CHEMBL1201862, “PubChem BioAssay data set” (2004).

Series [1] in a line: non-specific 3'UTR reporter inhibition in Clone20-Shn3RL – cell-based, Renilla luciferase, cherry-picked, counter-screen for Shn3 inhibitor project, dose response (AID 624133). It counts as functional. On the technique in general: The purpose of a counterscreen is to sort out artefacts and off-target activity.
The test system of series [2] is A-375. Kind of series: proliferation inhibition in MITF-low A375 cells – cell-based, cherry-pick samples, set 2, counter-screen for MITF modulator project, dose response (AID 540335). It counts as functional. To be noted: Homo sapiens.
Series [3] deals with T1, Ubiquitin-conjugating enzyme E2 N (Homo sapiens, UniProt P61088).
T1 sequence (P61088 whole entry): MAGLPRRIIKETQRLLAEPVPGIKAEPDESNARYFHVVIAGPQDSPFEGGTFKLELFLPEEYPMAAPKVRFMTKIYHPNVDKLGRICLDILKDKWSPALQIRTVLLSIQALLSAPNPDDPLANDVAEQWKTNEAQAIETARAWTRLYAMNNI
It counts as functional.

The nature of series [4]: reduction of Shn3 3'UTR-driven luciferase in osteoblasts – cell-based, Clone20 osteoblasts, firefly luciferase, cherry-picked, dose response (AID 624132).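 Note: firefly luciferase luminescence from reporter carrying the Shn3 3'UTR in osteoblasts.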 The series is classed as functional.
Series [5] concerns H9c2. Kind of series: cells. The series is classed as functional, cell-based. Conditions: Rattus norvegicus, H9c2, Myocardium.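 Note: confirmatory concentration-response retest of ultra-high-throughput screening hits for modulation of myocardial damage; cell death induced by hydrogen peroxide oxidative stress; compound pretreatment for 60 min then peroxide exposure for 2 h; potency is for protecting the cells against peroxide damage rather than for killing them.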
Series [6] has as its target T2, Microphthalmia-associated transcription factor (Homo sapiens, UniProt O75030).
T2 sequence (O75030 whole entry): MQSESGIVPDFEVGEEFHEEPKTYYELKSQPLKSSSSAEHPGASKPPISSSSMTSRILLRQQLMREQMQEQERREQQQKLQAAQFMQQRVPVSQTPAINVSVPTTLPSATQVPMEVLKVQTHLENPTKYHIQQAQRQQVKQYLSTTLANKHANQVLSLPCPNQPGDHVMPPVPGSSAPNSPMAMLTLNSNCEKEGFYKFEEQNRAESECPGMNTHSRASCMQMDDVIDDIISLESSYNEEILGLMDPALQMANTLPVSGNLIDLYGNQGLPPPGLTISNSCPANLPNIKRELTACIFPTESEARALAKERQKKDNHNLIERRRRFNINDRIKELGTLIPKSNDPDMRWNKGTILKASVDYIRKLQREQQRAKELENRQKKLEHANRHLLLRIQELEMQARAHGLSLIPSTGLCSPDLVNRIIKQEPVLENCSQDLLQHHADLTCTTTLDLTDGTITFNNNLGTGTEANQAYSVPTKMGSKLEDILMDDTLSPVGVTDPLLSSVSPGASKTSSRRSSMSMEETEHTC
Kind of series: reducers of TRPM1 reporter luminescence, concentration series – cell-based, SK-MEL-5, cherry-picked, set 3, MITF inhibitor project, dose response (AID 493073).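 Note: SK-MEL-5 melanoma cells with luciferase driven by the MITF target TRPM1 promoter.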 It counts as functional.

Series [7] in a line: loss of viability in HepG2 cells – cell-based, CellTiter-Glo, cherry-picked, cytotoxicity control for Shn3 inhibitor project, dose response (AID 624134). It counts as functional. (Cellular ATP, detected with luciferase, serves as a proxy for viable cell number.)
In series [8] the target is Dual specificity tyrosine-phosphorylation-regulated kinase 1A (Rattus norvegicus, UniProt Q63470). The series is classed as biochemical, Homo sapiens.
The nature of series [9]: MIN6 cell viability loss – mouse insulinoma, cytotoxicity control, dose response (AID 2122).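 Note: confirmatory high-throughput counterscreen run to flag cytotoxic compounds.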 The series is classed as functional.
A short description of series [10]: decrease of insulin promoter-GFP reporter – imaging, high-content screening, mouse beta cells (AID 1628). The series is classed as functional. To be noted: MIN6.
For series [11], the target named is Cytochrome P450 2D6 (Homo sapiens, UniProt P10635).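 Note: CYP2D6 member of a cytochrome P450 panel assay.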
Sequence of Cytochrome P450 2D6 (P10635 whole entry): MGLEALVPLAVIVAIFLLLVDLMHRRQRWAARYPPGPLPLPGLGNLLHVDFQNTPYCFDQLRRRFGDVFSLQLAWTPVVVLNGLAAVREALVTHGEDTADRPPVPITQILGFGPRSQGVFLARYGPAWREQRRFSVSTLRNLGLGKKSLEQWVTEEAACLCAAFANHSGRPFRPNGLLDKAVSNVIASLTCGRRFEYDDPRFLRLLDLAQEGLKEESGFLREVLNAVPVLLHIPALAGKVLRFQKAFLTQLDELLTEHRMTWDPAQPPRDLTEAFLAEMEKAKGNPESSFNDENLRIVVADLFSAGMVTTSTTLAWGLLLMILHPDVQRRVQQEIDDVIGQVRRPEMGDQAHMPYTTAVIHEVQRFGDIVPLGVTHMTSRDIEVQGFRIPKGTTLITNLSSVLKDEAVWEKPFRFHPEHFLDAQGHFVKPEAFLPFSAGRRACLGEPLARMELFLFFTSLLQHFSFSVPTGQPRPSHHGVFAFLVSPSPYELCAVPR
The target in series [12] is T3, Lysine-specific demethylase 4C (Homo sapiens, UniProt Q9H3R0).
T3 sequence (Q9H3R0 whole entry): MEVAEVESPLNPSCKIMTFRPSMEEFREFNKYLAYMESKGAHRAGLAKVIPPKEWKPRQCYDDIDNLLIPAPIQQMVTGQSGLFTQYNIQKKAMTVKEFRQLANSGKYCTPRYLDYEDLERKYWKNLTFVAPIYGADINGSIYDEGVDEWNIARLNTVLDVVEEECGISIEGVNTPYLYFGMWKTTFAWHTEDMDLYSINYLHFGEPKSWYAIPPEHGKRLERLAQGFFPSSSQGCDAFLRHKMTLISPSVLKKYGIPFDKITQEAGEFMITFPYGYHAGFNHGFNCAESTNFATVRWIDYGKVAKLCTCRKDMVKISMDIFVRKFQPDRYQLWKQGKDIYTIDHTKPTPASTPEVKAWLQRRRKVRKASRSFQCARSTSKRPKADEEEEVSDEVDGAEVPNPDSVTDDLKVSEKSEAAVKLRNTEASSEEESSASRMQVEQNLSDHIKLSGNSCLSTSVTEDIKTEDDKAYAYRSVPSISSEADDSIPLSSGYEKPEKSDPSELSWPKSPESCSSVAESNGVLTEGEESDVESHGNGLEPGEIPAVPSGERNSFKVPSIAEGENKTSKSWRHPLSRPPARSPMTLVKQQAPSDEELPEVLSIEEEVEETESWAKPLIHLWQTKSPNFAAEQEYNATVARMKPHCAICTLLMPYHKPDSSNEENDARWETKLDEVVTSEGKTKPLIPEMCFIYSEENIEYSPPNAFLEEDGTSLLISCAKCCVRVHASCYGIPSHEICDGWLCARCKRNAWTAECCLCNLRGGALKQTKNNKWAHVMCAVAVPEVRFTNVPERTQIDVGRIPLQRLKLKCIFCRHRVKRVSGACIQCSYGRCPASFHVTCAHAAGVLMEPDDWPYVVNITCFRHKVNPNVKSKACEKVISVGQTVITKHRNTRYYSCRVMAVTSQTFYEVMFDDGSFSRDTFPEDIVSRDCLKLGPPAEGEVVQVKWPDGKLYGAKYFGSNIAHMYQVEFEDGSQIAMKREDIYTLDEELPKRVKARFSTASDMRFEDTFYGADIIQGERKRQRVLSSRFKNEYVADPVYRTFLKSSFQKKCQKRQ
Kind of series: inhibition of JMJD2C H3K9me3 demethylation – biochemical, DELFIA europium, cherry-picked samples, dose response (AID 488835). It counts as functional.

The target in series [13] is Keap1/Nrf2 (Homo sapiens, UniProt Q14145). Kind of series: disruptors of Keap1 binding to Nrf2 peptide – biochemical, fluorescence polarization, cherry-picked samples, dose response (AID 588683).
Sequence of Keap1/Nrf2 (Q16236 whole entry, the tested form may be a part): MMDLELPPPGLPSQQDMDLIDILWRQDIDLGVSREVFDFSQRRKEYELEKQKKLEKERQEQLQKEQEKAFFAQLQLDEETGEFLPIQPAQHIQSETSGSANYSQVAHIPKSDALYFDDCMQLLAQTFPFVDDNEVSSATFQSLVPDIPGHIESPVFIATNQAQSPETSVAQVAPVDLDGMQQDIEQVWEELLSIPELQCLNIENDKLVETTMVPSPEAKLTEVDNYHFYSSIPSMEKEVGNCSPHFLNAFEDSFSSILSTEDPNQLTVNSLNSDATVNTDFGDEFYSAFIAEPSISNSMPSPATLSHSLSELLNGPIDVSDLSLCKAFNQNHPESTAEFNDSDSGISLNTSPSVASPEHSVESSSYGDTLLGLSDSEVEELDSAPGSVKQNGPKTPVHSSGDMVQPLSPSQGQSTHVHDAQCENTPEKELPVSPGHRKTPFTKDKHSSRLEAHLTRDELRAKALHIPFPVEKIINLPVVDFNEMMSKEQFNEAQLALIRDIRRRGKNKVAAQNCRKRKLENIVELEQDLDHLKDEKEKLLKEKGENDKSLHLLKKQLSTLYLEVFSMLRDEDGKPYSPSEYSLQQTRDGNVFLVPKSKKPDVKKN
Sequence of Keap1/Nrf2 (Q14145 whole entry, the tested form may be a part): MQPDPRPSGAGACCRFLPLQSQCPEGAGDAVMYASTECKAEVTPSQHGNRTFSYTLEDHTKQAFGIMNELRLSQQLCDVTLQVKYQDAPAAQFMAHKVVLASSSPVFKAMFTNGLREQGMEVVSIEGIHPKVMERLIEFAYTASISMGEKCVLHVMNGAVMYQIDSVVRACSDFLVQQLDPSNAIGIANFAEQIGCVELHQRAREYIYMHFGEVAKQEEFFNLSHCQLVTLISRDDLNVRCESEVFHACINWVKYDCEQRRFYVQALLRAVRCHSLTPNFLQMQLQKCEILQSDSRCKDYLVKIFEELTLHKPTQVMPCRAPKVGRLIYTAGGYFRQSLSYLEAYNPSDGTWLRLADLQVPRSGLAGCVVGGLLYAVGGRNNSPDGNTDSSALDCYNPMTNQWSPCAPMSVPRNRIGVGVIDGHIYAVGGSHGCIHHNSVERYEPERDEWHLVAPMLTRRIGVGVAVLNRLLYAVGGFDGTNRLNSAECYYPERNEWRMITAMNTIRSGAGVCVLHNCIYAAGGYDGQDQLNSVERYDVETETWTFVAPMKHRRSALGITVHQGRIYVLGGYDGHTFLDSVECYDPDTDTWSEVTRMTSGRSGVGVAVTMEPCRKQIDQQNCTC
Series [14] has as its target T4, RNA-binding protein pos-1 (Caenorhabditis elegans, UniProt G5EF15).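 Note: purified POS-1 fused to maltose binding protein made in E. coli; potency of compounds blocking POS-1 binding to fluorescent RNA.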
T4 sequence (G5EF15 whole entry): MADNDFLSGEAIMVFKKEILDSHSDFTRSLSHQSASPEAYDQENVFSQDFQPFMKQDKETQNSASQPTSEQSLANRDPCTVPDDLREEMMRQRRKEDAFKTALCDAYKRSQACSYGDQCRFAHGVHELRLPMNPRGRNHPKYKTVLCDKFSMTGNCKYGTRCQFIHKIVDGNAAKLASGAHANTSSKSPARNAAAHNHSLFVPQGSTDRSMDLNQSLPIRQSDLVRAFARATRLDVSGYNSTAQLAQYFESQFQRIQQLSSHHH
Briefly: disruptors of C. elegans POS-1 RNA interaction – biochemical, fluorescence polarization, dose response (AID 1964). (In general: Polarisation of emitted light reports the rotation of a fluorescent probe.)

The target of series [15] is T5, Zinc finger protein mex-5 (Caenorhabditis elegans, UniProt Q9XUB2).
T5 sequence (Q9XUB2 whole entry): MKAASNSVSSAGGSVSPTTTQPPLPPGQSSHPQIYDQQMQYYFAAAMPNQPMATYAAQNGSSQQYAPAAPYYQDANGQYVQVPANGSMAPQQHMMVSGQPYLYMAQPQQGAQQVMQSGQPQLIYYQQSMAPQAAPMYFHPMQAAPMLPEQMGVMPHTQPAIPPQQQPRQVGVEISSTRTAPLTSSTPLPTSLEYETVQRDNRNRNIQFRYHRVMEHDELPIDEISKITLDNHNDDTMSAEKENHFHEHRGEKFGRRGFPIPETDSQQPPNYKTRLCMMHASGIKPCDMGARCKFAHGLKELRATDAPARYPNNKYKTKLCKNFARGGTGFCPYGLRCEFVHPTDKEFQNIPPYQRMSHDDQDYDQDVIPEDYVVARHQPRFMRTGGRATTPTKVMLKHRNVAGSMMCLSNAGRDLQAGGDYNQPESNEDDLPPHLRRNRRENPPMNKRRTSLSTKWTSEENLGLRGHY
Kind of series: potency of MEX-5 RNA-binding blockers – biochemical, C. elegans, fluorescence polarization, dose response (AID 1960).

Series [16] has as its system INS1. Briefly: INS-1E survival protection against cytokine death – cell-based, luminescence, retest, dose response (AID 449756).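 Note: cell death triggered by IL-1 beta plus TNF-alpha plus IFN-gamma mixture; protective hits raise ATP signal compared with cytokine alone wells.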 It counts as functional. Conditions: Rattus norvegicus.
Series [17] addresses T6, Heat shock factor protein 1 (Mus musculus, UniProt P38532).
T6 sequence (P38532 whole entry): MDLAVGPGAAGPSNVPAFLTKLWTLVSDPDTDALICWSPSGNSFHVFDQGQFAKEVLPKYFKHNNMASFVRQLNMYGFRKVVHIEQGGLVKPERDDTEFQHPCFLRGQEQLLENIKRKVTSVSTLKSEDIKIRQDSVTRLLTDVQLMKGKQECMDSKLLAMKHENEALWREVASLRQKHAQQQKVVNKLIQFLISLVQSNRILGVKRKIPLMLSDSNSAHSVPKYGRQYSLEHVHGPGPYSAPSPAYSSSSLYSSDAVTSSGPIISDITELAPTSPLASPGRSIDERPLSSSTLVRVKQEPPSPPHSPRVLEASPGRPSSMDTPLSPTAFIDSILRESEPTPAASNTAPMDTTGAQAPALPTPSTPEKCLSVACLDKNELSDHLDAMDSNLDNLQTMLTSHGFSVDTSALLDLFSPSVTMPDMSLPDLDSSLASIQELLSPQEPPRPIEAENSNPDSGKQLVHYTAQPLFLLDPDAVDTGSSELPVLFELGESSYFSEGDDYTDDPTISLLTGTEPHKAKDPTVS
Briefly: decrease of HSF1-responsive luciferase luminescence – cell-based, NIH3T3, dose retest, confirmation (AID 2382).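 Note: NIH3T3 fibroblasts with HSF1-driven luciferase reporter stressed by proteasome inhibitor MG132; luminescence from HSF1-driven luciferase expression after 8 hours of MG132 stress.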 It counts as functional.

The source made the active and inactive calls.

As for `CC(Oc1cccc(Br)c1)C(=O)NNC(=O)c1ccccn1` (stereo unspecified), the AC50 – broadly, the midpoint of the concentration-response curve, whichever way the signal moves – in [1] is 3.19 µM (active); in series [2] it was 41.2 µM (active); in [4], 3.36 µM (active); in series [6], 7.18 µM (active); in [7], 49.4 µM (active). In addition, the IC50 (commonly the midpoint of a concentration-inhibition curve) in [3] is > 20 µM (inactive); in series [5], > 79 µM (inactive).

On to `COc1cc(N2CN=c3s/c(=C\c4ccccn4)c(=O)n3C2)cc(OC)c1OC`, for which the AC50 in series [8] is 3.08 µM (active).

As for `O=C(Cc1c(F)cccc1Cl)Nc1nc2ccccc2s1`, in series [8], the AC50 is 7.77 µM (active).

Take `CC(C)C(=O)Nc1cccc(C(=O)N2CCCCC2C)c1` (stereo unspecified): the half-maximal inhibitory concentration (IC50) was 1.99 µM (active) in series [9] and 2.43 µM (active) in [10].

With `c1ccc(C2OCC3(CO2)COC(c2ccccc2)OC3)cc1` (stereo unspecified), in [11], the AC50 result was “inconclusive”.

Turning to `O=C(O)c1nn(-c2ccccc2-c2nnc(O)nc2O)c(=O)[nH]c1=O`, the AC50 result in series [11] was “inconclusive”.

`Cc1cccc(N2C(=O)NC(=O)/C(=C\c3cnc(-c4ccccc4)nc3)C2=O)c1`: in series [12], the half-maximal activity concentration (AC50) is 15.2 µM (active).

On to `CCCCOc1ccc(/C=C2/Sc3ccccc3C2=O)cc1`, for which the AC50 in [13] is > 52 µM (inactive). Further, the EC50 (usually the concentration needed to bring the measured effect to its halfway point) was 158 µM (inconclusive) in series [14] and 177 µM (inconclusive) in [15].

As for `Cc1ccc(Cn2c(=N)n(CC(=O)c3ccccc3)c3ccccc32)cc1`, the AC50 in series [16] was 7.43 µM (active). Besides, the figures for the half-maximal inhibitory concentration (IC50) in series [9] and in series [10] were 1.86 µM (active) and 1.8 µM (active), respectively. In series [17], the EC50 is on record as > 195 µM (not active).
